Test results: US10421765B2, “Tetrahydropyrido[4,3-d]pyrimidine inhibitors of ATR kinase” (Board of Regents, The University of Texas System, priority 2017, dated 2019)
Like-named read-outs stand apart in the source and are kept apart here.

Tests used:
[1] = test system: ATR-driven phosphorylation of Chk1 kinase at Serine 345 in HT-29 colorectal adenocarcinoma cells; assay: pCHK1 cellular assay (CHK1 p-Ser345 AlphaScreen SureFire); format: cell-based; conditions: 4-nitroquinoline N-oxide 12 uM, read-out: Cell IC50 (pCHK1 IC50 values)
Procedure, shortened: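 HT-29 cells seeded overnight, treated with 1:3 serially diluted compound for 90 minutes at 37° C., then 12 uM (final) 4-nitroquinoline N-oxide for 120 minutes. Lysates read for Chk1 p-Ser345 by AlphaScreen SureFire; IC50 from four-parameter logistic fit, normalized to DMSO (max) and 5 uM ATR inhibitor (min).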

ATR/ATRIP complex = ATR/ATRIP complex (Homo sapiens (Human), UniProt Q13535); assay: ATR/ATRIP enzymatic assay (Caliper-based); format: biochemical; conditions: FAM-labeled RAD17 peptide, ATP
Procedure, shortened: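 FLAG-TEV-ATR/His6-ATRIP co-expressed in HEK293 and anti-FLAG purified. Compound preincubated 30 min at 28 °C with enzyme (2x solution 4 nM), then FAM-RAD17 peptide (2x solution 10 uM, 2 μM ATP) added for 6 h at 28 °C; HEPES pH 8, 10 mM MnCl2. Caliper conversion read-out, IC50 from four-parameter fit.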

[2] = Homo sapiens, HT-29, HT-29 cells
[3] = read-out: ATR/ATRIP Enzyme IC50
[4] = estimated range, read-out: ATR/ATRIP Enzyme IC50 (estimated class)

Sequence of ATR/ATRIP complex (Q13535 whole entry): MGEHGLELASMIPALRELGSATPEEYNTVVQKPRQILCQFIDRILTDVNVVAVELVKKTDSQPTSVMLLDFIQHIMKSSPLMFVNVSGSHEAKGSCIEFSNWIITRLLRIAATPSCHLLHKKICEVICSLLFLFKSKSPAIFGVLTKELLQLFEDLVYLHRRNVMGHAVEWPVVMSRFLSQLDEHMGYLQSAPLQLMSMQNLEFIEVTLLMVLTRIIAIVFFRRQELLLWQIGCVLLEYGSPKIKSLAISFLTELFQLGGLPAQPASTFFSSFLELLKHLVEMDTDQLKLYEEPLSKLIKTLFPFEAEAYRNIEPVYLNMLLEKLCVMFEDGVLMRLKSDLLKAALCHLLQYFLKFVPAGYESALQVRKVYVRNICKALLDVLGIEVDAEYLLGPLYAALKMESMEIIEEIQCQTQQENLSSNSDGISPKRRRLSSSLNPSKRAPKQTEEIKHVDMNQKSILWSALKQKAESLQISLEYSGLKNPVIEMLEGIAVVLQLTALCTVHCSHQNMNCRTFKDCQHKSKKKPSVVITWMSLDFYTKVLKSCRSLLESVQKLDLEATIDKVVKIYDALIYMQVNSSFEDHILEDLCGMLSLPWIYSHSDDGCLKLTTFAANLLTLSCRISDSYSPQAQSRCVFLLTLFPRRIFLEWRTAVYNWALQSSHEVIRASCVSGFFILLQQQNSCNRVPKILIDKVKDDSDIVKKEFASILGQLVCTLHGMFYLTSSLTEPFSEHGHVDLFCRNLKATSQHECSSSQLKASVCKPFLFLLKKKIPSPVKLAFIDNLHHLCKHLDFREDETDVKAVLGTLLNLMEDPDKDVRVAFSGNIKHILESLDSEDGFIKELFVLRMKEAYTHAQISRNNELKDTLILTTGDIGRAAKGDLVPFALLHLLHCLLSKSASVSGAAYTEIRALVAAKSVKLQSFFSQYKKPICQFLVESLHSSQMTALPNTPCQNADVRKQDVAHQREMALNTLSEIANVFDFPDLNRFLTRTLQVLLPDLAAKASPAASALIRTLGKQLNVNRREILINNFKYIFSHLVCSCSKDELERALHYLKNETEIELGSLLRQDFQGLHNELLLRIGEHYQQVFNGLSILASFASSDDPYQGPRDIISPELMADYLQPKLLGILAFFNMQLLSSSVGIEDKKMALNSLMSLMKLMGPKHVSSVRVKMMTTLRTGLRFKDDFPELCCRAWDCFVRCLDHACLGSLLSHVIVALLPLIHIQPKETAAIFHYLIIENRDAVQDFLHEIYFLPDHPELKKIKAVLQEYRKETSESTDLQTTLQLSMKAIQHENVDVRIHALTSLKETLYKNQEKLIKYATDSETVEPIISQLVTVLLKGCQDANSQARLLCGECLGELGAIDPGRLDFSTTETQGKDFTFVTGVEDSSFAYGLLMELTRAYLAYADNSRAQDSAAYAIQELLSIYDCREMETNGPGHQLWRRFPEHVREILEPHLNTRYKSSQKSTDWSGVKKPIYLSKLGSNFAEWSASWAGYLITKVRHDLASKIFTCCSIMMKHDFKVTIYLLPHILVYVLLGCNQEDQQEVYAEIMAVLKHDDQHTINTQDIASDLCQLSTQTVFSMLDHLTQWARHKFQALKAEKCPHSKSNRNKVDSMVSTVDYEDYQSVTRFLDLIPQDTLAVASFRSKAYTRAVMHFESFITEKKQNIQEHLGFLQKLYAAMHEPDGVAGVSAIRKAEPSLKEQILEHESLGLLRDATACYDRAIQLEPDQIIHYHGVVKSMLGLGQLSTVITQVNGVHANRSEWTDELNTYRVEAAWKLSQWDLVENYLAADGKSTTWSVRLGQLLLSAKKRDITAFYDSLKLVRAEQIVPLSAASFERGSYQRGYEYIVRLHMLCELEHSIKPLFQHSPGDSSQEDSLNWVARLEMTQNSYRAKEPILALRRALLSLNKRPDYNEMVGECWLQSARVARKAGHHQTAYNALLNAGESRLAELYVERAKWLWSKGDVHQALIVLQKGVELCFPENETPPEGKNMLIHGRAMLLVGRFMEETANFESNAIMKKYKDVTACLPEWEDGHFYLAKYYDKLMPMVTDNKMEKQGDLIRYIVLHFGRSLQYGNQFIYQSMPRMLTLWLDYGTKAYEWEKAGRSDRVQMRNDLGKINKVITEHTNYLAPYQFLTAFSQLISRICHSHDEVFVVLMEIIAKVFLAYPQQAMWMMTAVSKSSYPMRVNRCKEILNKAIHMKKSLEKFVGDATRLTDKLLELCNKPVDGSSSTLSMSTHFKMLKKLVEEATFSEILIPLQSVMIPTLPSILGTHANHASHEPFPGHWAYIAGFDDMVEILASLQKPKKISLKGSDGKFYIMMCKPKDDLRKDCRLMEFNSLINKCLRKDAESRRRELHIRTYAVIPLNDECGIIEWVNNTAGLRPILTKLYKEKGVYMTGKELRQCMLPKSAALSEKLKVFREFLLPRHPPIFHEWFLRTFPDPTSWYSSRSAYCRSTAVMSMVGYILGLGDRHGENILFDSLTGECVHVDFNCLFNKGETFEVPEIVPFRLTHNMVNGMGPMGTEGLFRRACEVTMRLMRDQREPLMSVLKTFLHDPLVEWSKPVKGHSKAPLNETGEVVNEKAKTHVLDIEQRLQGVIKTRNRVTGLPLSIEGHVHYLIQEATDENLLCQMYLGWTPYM
Sequence of ATR/ATRIP complex (Q8WXE1 whole entry partner): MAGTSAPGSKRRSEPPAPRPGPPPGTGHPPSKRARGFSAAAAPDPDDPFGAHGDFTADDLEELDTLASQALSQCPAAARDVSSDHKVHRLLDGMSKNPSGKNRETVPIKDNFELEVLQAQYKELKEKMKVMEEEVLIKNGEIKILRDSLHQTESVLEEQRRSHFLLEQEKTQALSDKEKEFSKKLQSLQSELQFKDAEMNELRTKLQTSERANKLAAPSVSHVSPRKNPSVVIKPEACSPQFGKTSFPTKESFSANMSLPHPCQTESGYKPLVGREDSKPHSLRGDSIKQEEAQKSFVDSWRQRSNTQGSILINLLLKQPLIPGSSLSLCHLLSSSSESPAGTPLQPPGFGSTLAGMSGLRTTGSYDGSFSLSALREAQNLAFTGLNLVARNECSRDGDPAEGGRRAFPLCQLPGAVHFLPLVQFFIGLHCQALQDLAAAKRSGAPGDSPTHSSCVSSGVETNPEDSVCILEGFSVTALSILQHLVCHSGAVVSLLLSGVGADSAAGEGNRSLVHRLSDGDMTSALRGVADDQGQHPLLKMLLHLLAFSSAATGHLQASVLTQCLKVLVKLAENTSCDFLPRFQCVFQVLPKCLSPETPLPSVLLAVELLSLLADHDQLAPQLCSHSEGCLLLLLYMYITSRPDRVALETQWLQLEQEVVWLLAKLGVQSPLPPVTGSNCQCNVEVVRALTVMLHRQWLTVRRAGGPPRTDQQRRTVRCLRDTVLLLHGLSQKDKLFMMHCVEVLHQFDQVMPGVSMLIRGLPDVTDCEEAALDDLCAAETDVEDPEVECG

IC50 [1, 2] | IC50 (ATR/ATRIP complex; [3]) | IC50 (ATR/ATRIP complex; [4]) | IC50 ([1]; HT-29 cells) | SMILES
25 nM | 584 nM | – | – | C[C@@H]1Cc2ncnc(N3CCC(C)(O)CC3)c2CN1c1cc(Cl)nc2[nH]ccc12 [Example 66, (R)-1-(6-(6-chloro-1H-pyrrolo[2,3-b]pyridin-4-yl)-7-methyl-5,6,7,8-tetrahydropyrido[4,3-d]-pyrimidin-4-yl)-4-methyl-piperidin-4-ol]
138 nM | 253 nM | – | – | COC(=O)[C@@H]1CCCN(c2ncnc3c2CN(c2cc(Cl)nc4[nH]ccc24)[C@H](C)C3)C1 [Example 62, Methyl (R)-1-((R)-6-(6-chloro-1H-pyrrolo[2,3-b]pyridin-4-yl)-7-methyl-5,6,7,8-tetrahydropyrido-[4,3-d]pyrimidin-4-yl)-piperidine-3-carboxylate]
79 nM | 796 nM | – | – | C[C@@H]1Cc2ncnc(N3CCC(C#N)CC3)c2CN1c1ccnc2[nH]ccc12 [Example 82, (R)-1-(7-methyl-6-(1H-pyrrolo[2,3-b]pyridin-4-yl)-5,6,7,8-tetrahydro-pyrido[4,3-d]pyrimidin-4-yl)piperidine-4-carbonitrile]
119 nM | 715 nM | – | – | C[C@@H]1Cc2ncnc(N3CCC[C@@H](NS(C)(=O)=O)C3)c2CN1c1cc(Cl)nc2[nH]ccc12 [Example 72, N-((R)-1-((R)-6-(6-chloro-1H-pyrrolo[2,3-b]-pyridin-4-yl)-7-methyl-5,6,7,8-tetrahydropyrido-[4,3-d]pyrimidin-4-yl)-piperidin-3-yl)-methanesulfonamide]
570 nM | 514 nM | – | – | C[C@@H]1Cc2ncnc(N3CCC4(CC3)NC(=O)NC4=O)c2CN1c1cc(Cl)nc2[nH]ccc12 [Example 61, (R)-8-(6-(6-chloro-1H-pyrrolo[2,3-b]pyridin-4-yl)-7-methyl-5,6,7,8-tetrahydropyrido[4,3-d]pyrimidin-4-yl)-1,3,8-triazaspiro[4.5]decane-2,4-dione]
22 nM | 321 nM | – | – | C[C@@H]1Cc2ncnc(C3CCN(S(C)(=O)=O)CC3)c2CN1c1cc(OCC(F)(F)F)nc2[nH]ccc12 [Example 96, (R)-7-methyl-4-(1-(methylsulfonyl)piperidin-4-yl)-6-(6-(2,2,2-tri-fluoroethoxy)-1H-pyrrolo[2,3-b]pyridin-4-yl)-5,6,7,8-tetrahydro-pyrido[4,3-d]pyrimidine]
10 nM | 87 nM | – | – | C[C@@H]1Cc2ncnc(N3CCC[C@@H](C(C)(C)O)C3)c2CN1c1cc(Cl)nc2[nH]ccc12 [Example 70, 2-((R)-1-((R)-6-(6-chloro-1H-pyrrolo[2,3-b]-pyridin-4-yl)-7-methyl-5,6,7,8-tetrahydropyrido-[4,3-d]pyrimidin-4-yl)-piperidin-3-yl)propan-2-ol]
13 nM | 93 nM | – | – | C[C@@H]1Cc2ncnc(C3CCN(S(C)(=O)=O)CC3)c2CN1c1cc(OC2CC2)nc2[nH]ccc12 [Example 97, (R)-6-(6-cyclopropoxy-1H-pyrrolo[2,3-b]pyridin-4-yl)-7-methyl-4-(1-(methylsulfonyl)piperidin-4-yl)-5,6,7,8-tetrahydro-pyrido[4,3-d]pyrimidine]
7 nM | 73 nM | – | – | C[C@@H]1Cc2ncnc(N3CCC[C@H](NS(C)(=O)=O)C3)c2CN1c1cc(Cl)nc2[nH]ccc12 [Example 71, N-((S)-1-((R)-6-(6-chloro-1H-pyrrolo[2,3-b]-pyridin-4-yl)-7-methyl-5,6,7,8-tetrahydropyrido-[4,3-d]pyrimidin-4-yl)-piperidin-3-yl)-methanesulfonamide]
34 nM | 246 nM | – | – | C[C@@H]1Cc2ncnc(N3CCC(O)(C4CC4)CC3)c2CN1c1cc(Cl)nc2[nH]ccc12 [Example 75, (R)-1-(6-(6-chloro-1H-pyrrolo[2,3-b]pyridin-4-yl)-7-methyl-5,6,7,8-tetrahydropyrido[4,3-d]pyrimidin-4-yl)-4-cyclopropylpiperidin-4-ol]

The next lines start with the molecule.

SMILES | IC50 [1, 2] | IC50 (ATR/ATRIP complex; [3]) | IC50 (ATR/ATRIP complex; [4]) | IC50 ([1]; HT-29 cells)
CC1Cc2ncnc(C3CCN(S(C)(=O)=O)CC3)c2CN1c1ccnc2[nH]ccc12 (stereo not shown) [Example 4, 7-Methyl-4-(1-(methylsulfonyl)piperidin-4-yl)-6-(1H-pyrrolo[2,3-b]pyridin-4-yl)-5,6,7,8-tetrahydropyrido[4,3-d]pyrimidine bis(trifluoroacetate)] | 157 nM | 833 nM | – | –
C[C@@H]1Cc2ncnc(C3CCN(S(C)(=O)=O)CC3)c2CN1c1cc(Cl)nc2[nH]ccc12 [Example 7, (R)-6-(6-Chloro-1H-pyrrolo[2,3-b]pyridin-4-yl)-7-methyl-4-(1-(methylsulfonyl)-piperidin-4-yl)-5,6,7,8-tetrahydropyrido[4,3-d]pyrimidine bis(trifluoroacetate)] | 32 nM | 163 nM | – | –
CCC(=O)NC1[C@@H]2CC[C@H]1CN(c1ncnc3c1CN(c1cc(Cl)nc4[nH]ccc14)[C@H](C)C3)C2 (stereo partly drawn) [Example 27, N-[3-[(7R)-6-{6-chloro-1H-pyrrolo[2,3-b]pyridin-4-yl}-7-methyl-5H,6H,7H,8H-pyrido[4,3-d]pyrimidin-4-yl]-3-aza-bicyclo[3.2.1]octan-8-yl}propanamide] | 38 nM | – | 1000 to 10000 nM | –
C[C@@H]1Cc2ncnc(N3CCS(=O)(=O)CC3)c2CN1c1cc(Cl)nc2[nH]ccc12 [Example 22, 4-[(7R)-6-{6-chloro-1H-pyrrolo[2,3-b]pyridin-4-yl}-7-methyl-5H,6H,7H,8H-pyrido[4,3-d]pyrimidin-4-yl]-1λ^6-thiomorpholine-1,1-dione] | 554 nM | – | 1000 to 10000 nM | –
C[C@@H]1Cc2ncnc(N3CCN(S(C)(=O)=O)C(C)(C)C3)c2CN1c1cc(Cl)nc2[nH]ccc12 [Example 21, 4-[(7R)-6-{6-chloro-1H-pyrrolo[2,3-b]pyridin-4-yl}-7-methyl-5H,6H,7H,8H-pyrido[4,3-d]pyrimidin-4-yl]-1-methanesulfonyl-2,2-dimethylpiperazine] | 57 nM | – | 1000 to 10000 nM | –
CCOc1cc(N2Cc3c(ncnc3C3CCN(S(C)(=O)=O)CC3)C[C@H]2C)c2cc[nH]c2n1 [Example 54, (R)-6-(6-ethoxy-1H-pyrrolo[2,3-b]pyridin-4-yl)-7-methyl-4-(1-(methylsulfonyl)piperidin-4-yl)-5,6,7,8-tetrahydropyrido[4,3-d]pyrimidine] | 10 nM | 123 nM | – | –
C[C@@H]1Cc2ncnc(N3C[C@H]4CC[C@@H](C3)C4NS(C)(=O)=O)c2CN1c1cc(Cl)nc2[nH]ccc12 (stereo partly drawn) [Example 13, N-((1R,5S)-3-((R)-6-(6-Chloro-1H-pyrrolo[2,3-b]pyridin-4-yl)-7-methyl-5,6,7,8-tetrahydropyrido[4,3-d]pyrimidin-4-yl)-3-azabicyclo[3.2.]octan-8-yl)methanesulfonamide] | 29 nM | 114 nM | – | –
C[C@@H]1Cc2ncnc(N3CCC(NS(C)(=O)=O)CC3)c2CN1c1cc(Cl)nc2[nH]ccc12 [Example 29, N-{1-[(7R)-6-{6-chloro-1H-pyrrolo[2,3-b]pyridin-4-yl}-7-methyl-5H,6H,7H,8H-pyrido [4,3-d]pyrimidin-4-yl]piperidin-4-yl}methanesulfonamide] | 13 nM | 120 nM | – | –
C[C@@H]1Cc2ncnc(N3CCC(S(C)(=O)=O)C3)c2CN1c1cc(Cl)nc2[nH]ccc12 (stereo partly drawn) [Example 41, (7R)-6-(6-chloro-1H-pyrrolo[2,3-b]pyridin-4-yl)-7-methyl-4-(3-(methylsulfonyl)pyrrolidin-1-yl)-5,6,7,8-tetrahydropyrido[4,3-d]pyrimidine] | 36 nM | 472 nM | – | –
Cc1cc(N2Cc3c(ncnc3C3CCN(S(C)(=O)=O)CC3)C[C@H]2C)c2cc[nH]c2n1 [Example 56, (R)-7-methyl-6-(6-methyl-1H-pyrrolo[2,3-b]pyridin-4-yl)-4-(1-(methylsulfonyl)piperidin-4-yl)-5,6,7,8-tetrahydropyrido[4,3-d]pyrimidine] | 52 nM | 773 nM | – | –
C[C@@H]1Cc2ncnc(C3CN(S(C)(=O)=O)C3)c2CN1c1cc(Cl)nc2[nH]ccc12 [Example 47, (R)-6-(6-Chloro-1H-pyrrolo[2,3-b]pyridin-4-yl)-7-methyl-4-(1-(methylsulfonyl)azetidin-3-yl)-5,6,7,8-tetrahydropyrido[4,3-d]pyrimidine] | 30 nM | 287 nM | – | –
C[C@@H]1Cc2ncnc([C@H]3CCN(S(C)(=O)=O)C(C)(C)C3)c2CN1c1ccnc2[nH]ccc12 (single isomer, unassigned) [Example 48b] | – | 435 nM | – | 79 nM
CS(=O)(=O)c1cccc(-c2ncnc3c2CN(c2ccnc4[nH]ccc24)CC3)c1 [Example 14, 4-(3-methanesulfonyl-phenyl)-6-{1H-pyrrolo-[2,3-b]pyridin-4-yl}-5H,6H,7H,8H-pyrido [4,3-d]pyrimidine] | 1610 nM | – | 1000 to 10000 nM | –
C[C@@H]1Cc2ncnc(C3CCN(S(C)(=O)=O)CC3)c2CN1c1ccnc2[nH]ncc12 [Example 42, (R)-7-methyl-4-(1-(methylsulfonyl)piperidin-4-yl)-6-(1H-pyrazolo[3,4-b]pyridin-4-yl)-5,6,7,8-tetrahydropyrido[4,3-d] pyrimidine] | 3010 nM | – | 1000 to 10000 nM | –
CS(=O)(=O)N1CCC(c2ncnc3c2CN(c2ccnc4[nH]ccc24)[C@H](C(F)F)C3)CC1 [Example 53b] | – | 2420 nM | – | 485 nM
C[C@@H]1Cc2ncnc(N3CCC(C(C)(C)O)CC3)c2CN1c1cc(Cl)nc2[nH]ccc12 [Example 30, 2-{1-[(7R)-6-{6-chloro-1H-pyrrolo[2,3-b]pyridin-4-yl}-7-methyl-5H,6H,7H,8H-pyrido[4,3-d]pyrimidin-4-yl]-piperidin-4-yl}propan-2-ol] | 12 nM | 329 nM | – | –
